Patent US9145391B2, “Bipyridylaminopyridines as Syk inhibitors” (Merck Sharp & Dohme Corp., priority 2011, dated 2015)

Biological target: recombinant human GST-Syk (Homo sapiens (Human), UniProt P43405)
Test: Homogeneous Time-Resolved Fluorescence (HTRF) assay for the recombinant human Syk enzyme
Assay type: biochemical
Settings: recombinant human GST-Syk 5 pM, ATP 25 μM, read-out: rhSyk IC50
Procedure, shortened: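 HTRF read-out of phosphorylation of a biotinylated Syk-site peptide (250 nM final) by a GST-tagged human Syk fusion. Reaction initiated with ATP at 25 μM final plus 5 mM magnesium final. Compound potency taken from inhibition of human Syk activity.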

Row | Structure (SMILES) | IC50 [nM]
1 | Cc1cc(Nc2cc(C(F)F)ccn2)nc(-c2ccc(C(C)(O)[C@H]3CC[C@H](C(=O)O)CC3)nc2)c1Br (single isomer, unassigned) [Example 15, trans-4-((1R or 1S)-(3-Bromo-6-(4-(difluoromethyl)pyridin-2-ylamino)-4-methyl-2,3′-bipyridin-6′-yl)-1-hydroxyethyl)cyclohexanecarboxylic acid] | 1
2 | CCC(C)OC(=O)[C@H]1CC[C@H](C(C)(O)c2ccc(-c3cc(C)cc(Nc4cc(C(F)F)ccn4)n3)cn2)CC1 (single isomer, unassigned) [Example 19-5, butan-2-yl trans-4-[(1R or 1S)-1-(6-{[4-(difluoromethyl)pyridin-2-yl]amino}-4-methyl-2,3′-bipyridin-6′-yl)-1-hydroxyethyl] cyclohexanecarboxylate] | 7
3 | Cc1cc(Nc2cc(C(F)(F)F)ccn2)nc(-c2ccc(C3(O)CCC(C(=O)O)C(C)(C)C3)nc2)c1 (centres unmarked) [Example 1-24] | 8
4 | Cc1cc(Nc2cc(C(F)(F)F)ccn2)nc(-c2ccc(NC3CCN(C(=O)Cc4ccccc4Cl)CC3)nc2)c1 [Example 4-95] | 12
5 | Cc1cc(Nc2cc(C(F)(F)F)ccn2)nc(-c2ccc(C3(O)CCN(C(=O)c4ccc5cc[nH]c5n4)CC3)nc2)c1 [Example 9, 4-(4-Methyl-6-{[4-(trifluoromethyl)pyridin-2-yl]amino}-2,3′-bipyridin-6′-yl)-1-(1H-pyrrolo[2,3-b]pyridin-6-ylcarbonyl)piperidin-4-ol] | 9
6 | Cc1cc(Nc2cc(C(F)(F)F)ccn2)nc(-c2ccc(C(O)(C3CCC(C(=O)O)CC3)C3CC3)nc2)c1 (centres unmarked) [Example 1-31] | < 0.5
7 | Cc1cc(Nc2cc(C(F)(F)F)ccn2)nc(-c2ccc(NC3CCN(C(=O)Cc4ccc(O)c(Cl)c4)CC3)nc2)c1 [Example 4-100] | 9
8 | Cc1cc(Nc2cc(C(F)(F)F)ccn2)nc(-c2ccc(NC3CCN(C(=O)Cc4cccc(Oc5ccccc5)c4)CC3)nc2)c1 [Example 4-74] | 57
9 | Cc1cc(Nc2cc(C(F)(F)F)ccn2)nc(-c2ccc(NC3CCN(C(=O)c4nn(-c5ccccc5)nc4C)CC3)nc2)c1 [Example 4-30] | 137
10 | Cc1cc(Nc2cc(C(F)F)ccn2)nc(-c2ccc(C(C)(O)[C@H]3CC[C@H](C(=O)OC(C)OC(=O)OC(C)C)CC3)nc2)c1 (single isomer, unassigned) [Example 20-8, 1-{[(propan-2-yloxy)carbonyl]oxy}ethyl trans-4-[(1R or 1S)-1-(6-{[4-(difluoromethyl)pyridin-2-yl]amino}-4-methyl-2,3′-bipyridin-6′-yl)-1-hydroxyethyl] cyclohexanecarboxylate] | 50
11 | Cc1cc(Nc2cc(C(F)(F)F)ccn2)nc(-c2ccc(C3(O)CCNCC3)nc2)c1 [Example 5-3] | 9
12 | Cc1cc(Nc2cc(C(F)(F)F)ccn2)nc(-c2ccc(NC3CCN(C(=O)c4ccncc4)CC3)nc2)c1 [Example 4-84] | 4
13 | Cc1cc(Nc2cc(C(F)(F)F)ccn2)nc(-c2ccc(NC3CCN(C(=O)c4ccnc5ccccc45)CC3)nc2)c1 [Example 4-66] | 24
14 | Cc1cc(Nc2cc(C(F)(F)F)ccn2)nc(-c2ccc(N3CCC4CCC(C(=O)O)CC4C3)nc2)c1 (centres unmarked) [Example 2-29] | 6
15 | Cc1ccnc(Nc2cc(C)cc(-c3ccnc(F)c3)n2)c1 [Example 1-3] | 135
16 | Cc1cc(Nc2cc(C(F)(F)F)ccn2)nc(-c2ccc(C3(O)CCN(C(=O)c4ccc5cccnc5c4)CC3)nc2)c1 [Example 9-1] | 30
17 | Cc1cc(Nc2cc(C(F)(F)F)ccn2)nc(-c2ccc(NC3CCN(C(=O)c4cn(C)c5ccccc45)CC3)nc2)c1 [Example 4-99] | 11
18 | CCC(O)(c1ccc(-c2cc(C)cc(Nc3cc(C(F)(F)F)ccn3)n2)cn1)C1CCC(C(=O)O)CC1 (centres unmarked) [Example 1-30] | < 0.5
19 | Cc1cc(Nc2cc(C(F)(F)F)ccn2)nc(-c2ccc(NC3CCN(C(=O)Cc4ccc(O)c(F)c4)CC3)nc2)c1 [Example 4-116] | 4
20 | Cc1cc(Nc2cc(C(F)(F)F)ccn2)nc(-c2ccc(NC3CCN(C(=O)c4cccc(C#N)c4)CC3)nc2)c1 [Example 4-85] | 7
